The text below walks through data of ChEMBL document CHEMBL3507680, “University of Dundee, Gates Library screen for HepG2 cell viability”.

The series in a line: Human HepG2 cell viability assay in 384 well format. The class given is toxicity, cell-based. Also on record: dose 125 nL, time 70.5 hour; concentration not given beside the values. The conditions noted are these: HepG2 cells, read-out: Inhibition.
`CCc1cc(=O)[nH]c2nnc(SCC(=O)NC)n12`: the cytotoxicity at 70.5 h was 14.5%.
Regarding `CNc1ncc(CN(C)C(=O)CCc2[nH]nc3c2CCCC3)cn1`, the cytotoxicity at 70.5 h was -11.5%.
Then `CN1CC(C(=O)NCc2cccnc2-n2cccn2)CC1=O` (stereo not drawn), with -6.03%.
For `CNC(=O)CN1CCC(NC(=O)Cc2ccccc2OC(C)C)CC1`, the cytotoxicity at 70.5 h is -10.8%.
For the compound `CN(Cc1ccc2c(c1)OCO2)C(=O)Cn1cccnc1=O`, the cytotoxicity at 70.5 h turned out to be 17.3%.
In the case of `Cc1cnn(CC2CCCN2C(=O)c2ccc(F)c(F)c2)c1` (stereo not drawn), the cytotoxicity at 70.5 h is -0.479%.
Then `O=C(NCc1ccccc1CN1CCC(O)CC1)Nc1ccccc1`, with -0.116%; and `O=C(NCCc1cccs1)N1CCCC2(CCC(=O)N(C3CC3)C2)C1` (stereo not drawn), with -0.67%; and `CC(=O)N(Cc1noc(C)n1)C1CCN(Cc2cnc(C)s2)C1` (stereo not drawn), with -4.39%.
Then `c1csc(-c2nc(CN3CCCC3Cn3cccn3)co2)c1` (stereo not drawn), with -75.5%.
For `O=C(Nc1nnn[nH]1)c1cc(-c2ccc(Br)s2)n[nH]1` the value was -3.48%; for `COc1cc(CNCc2ccco2)ccc1OCCO`, -5.33%.
`COc1ncccc1CNC1CCc2c(ccc(=O)n2C)C1` (stereo not drawn): the cytotoxicity at 70.5 h was -1.32%.
Then `COc1cc(F)cc(CNC(=O)Nc2ccn(CC(F)F)n2)c1`, with -2.34%; and `N#Cc1ccc(CNc2ncc(C#N)cc2Cl)cc1`, with 0.2%.
As to `CC(NC(=O)NCc1ccccn1)c1ccc2c(c1)CCC(=O)N2` (stereo not drawn), the cytotoxicity at 70.5 h is -6.54%.
For `Cc1ncsc1CN1C[C@H](OCc2ccncc2)[C@H]2OCCC[C@H]21`, the cytotoxicity at 70.5 h was -8.48%.
As to `CCC(C)(C)C1CCCN1C(=O)c1coc(S(=O)(=O)NC)c1` (stereo not drawn), the cytotoxicity at 70.5 h is 6.9%.
Consider `CNC(=O)c1ccc2c(c1)C1(CCN(CC3CC3)CC1)C(=O)N2`, for which the cytotoxicity at 70.5 h worked out at 1.88%.
With `CCCN1CCC(Nc2cc(-c3ccccc3)ccc2OC)CC1`, the cytotoxicity at 70.5 h worked out at 0.639%.
Then `CCc1ncnc2c1CCN(C(=O)c1cccn1C)CC2`, with 20.2%; and `O=C(c1ccc(F)cc1F)N1C[C@@H](O)[C@H](N2CCOCC2)C1`, with -2.76%; and `CCCn1cc(NC(=O)NCC2CCS(=O)(=O)C2)nn1` (stereo not drawn), with -9.78%.
For `COCCN(C)C[C@@H]1CN(C(=O)c2ccc(O)c(Cl)c2)C[C@@H]1CO`, the cytotoxicity at 70.5 h was -4.52%.
For `CN1CCc2ccc(NCc3cccs3)cc2C1=O` the value was -15.5%; for `CCn1nc(CNC(C)(C)CO)c(-c2ccccc2)n1`, -1.62%.
Then `CCC(NC(=O)C1CCN(S(C)(=O)=O)CC1)c1ccc(C)cc1C` (stereo not drawn), with -4.73%.
Then `Cc1ncsc1CN1C[C@@H]2COC[C@]2(C(=O)NC2CC(F)(F)C2)C1`, with -4.72%; and `CN(Cc1nnc(-c2ccco2)o1)C1CCCN(c2cccnn2)C1` (stereo not drawn), with 36.8%; and `CC(C)c1nnc2n1CC(CNc1cnc3ccccc3n1)CC2` (stereo not drawn), with -9.13%.
Consider `O=C(Nc1ccc(-c2csnn2)cc1)N1CCCC1`, for which the cytotoxicity at 70.5 h is -11.8%.
Turning to `COCc1ccccc1C(=O)NS(=O)(=O)CCCC#N`, the cytotoxicity at 70.5 h was -3.12%.
As to `CN(C)CCN1C(=O)CCCC12CCCN(C(=O)c1ccncc1)C2` (stereo not drawn), the cytotoxicity at 70.5 h is -3.49%.
`Cc1cc(CN2CCc3c(CNc4ncccn4)cncc3C2)oc1C`: the cytotoxicity at 70.5 h is -0.479%.
Then `c1coc(-c2nc(CN3CCOC(Cn4cccn4)C3)cs2)c1` (stereo not drawn), with 29.1%; and `CN1CCO[C@@H]2CN(S(=O)(=O)c3ccccc3F)CC[C@@H]2C1`, with -1.61%.
Then `Cc1cc(C2CCCN(CCc3ccc4c(c3)CCO4)C2)n[nH]1` (stereo not drawn), with -8.81%; and `COCCN(C)C[C@@H]1CN(Cc2ccnc3ccccc23)C[C@@H]1CO`, with -16.1%.
For `CCCc1cc(C(=O)N2CC(c3ccncc3)C2)ccn1` the value was 8.75%; for `O=S(=O)(c1ccc(F)c(F)c1)n1cc(Cl)cn1`, -6.91%.
On to `CS(=O)(=O)CCC(=O)Nc1nccn1Cc1ccccc1Cl`, for which the cytotoxicity at 70.5 h was determined as 0.444%.
On to `Brc1csc(-c2noc(C3COCCO3)n2)c1` (stereo not drawn), for which the cytotoxicity at 70.5 h is 0.61%.
In the case of `O=C([C@@H]1COC[C@H]2CN(C3CCCC3)C[C@H]21)N1CCCCO1`, the cytotoxicity at 70.5 h is 11.7%.
Then `CC(C)c1nc(C2CCCN(C(=O)c3ccc4[nH]nnc4c3)C2)no1` (stereo not drawn), with -4%.
For `COc1cccc(-c2cc(NCCO)nc3[nH]ccc23)n1` the value was -10.9%; for `c1n[nH]cc1CCCN1CCC(OC2CCCCC2)CC1`, 0.00847%; for `Cc1noc(C)c1S(=O)(=O)N1CCc2nc(C3CCNCC3)ncc2C1`, -6.62%.
Then `Cn1cc(-c2c(C#N)c(N)nc3c2CCc2[nH]ccc2-3)cc1C#N`, with 16.7%; and `O=C(Cn1ccnc1)N1CC[C@H](Oc2cccc(F)c2)[C@@H](O)CC1`, with 13%; and `CC(=O)NCc1ccc(S(=O)(=O)NC(=O)c2ccc3c(c2)COC3)s1`, with 0.101%.
On to `COc1nc(N2CCC(CC(N)=O)CC2)ncc1Br`, for which the cytotoxicity at 70.5 h was -8.58%.
Then `CCNC(=O)NC(=O)CN1CCC(c2c[nH]c3ccc(OC)cc23)CC1`, with 24.1%; and `CCOC(=O)CCn1cnc2onc(-c3cc(OC)ccc3Cl)c2c1=O`, with -11%; and `CCS(=O)(=O)CCSc1ccc(Br)cc1`, with -6.15%.
Turning to `CCOCC1CN(S(=O)(=O)C2CC2)Cc2nn(C)cc21` (stereo not drawn), the cytotoxicity at 70.5 h was -5.98%.
`O=S(=O)(NCCSc1nncn1C1CC1)c1ccccc1`: the cytotoxicity at 70.5 h was found to be 30.9%.
Then `O=C(CCc1ccc(=O)[nH]n1)N1CCCC(COc2ccc(F)cc2)C1` (stereo not drawn), with -1.69%; and `Cc1nonc1CN(C)Cc1nc(-c2cccc(F)c2F)oc1C`, with -7.8%; and `CN(Cc1ncc[nH]1)c1nc(-c2ccccn2)nc2c1CCNCC2`, with -11.9%.
For `O=C1CC2(CCN(Cc3ccncc3)C2)CN1c1ccc2c(c1)OCO2` (stereo not drawn) the value was 30%; for `CO[C@@H]1CCN(S(=O)(=O)c2cccs2)[C@H]1Cc1cccnc1`, -4.13%.
`Cc1cc(C(=O)N2CCc3[nH]nc(-c4ccc5c(c4)OCO5)c3C2)no1`: the cytotoxicity at 70.5 h is 1.25%.
Then `CC(C)NC(=O)Nc1nc2c(s1)CN(C(=O)NCc1cccs1)CC2`, with -0.676%; and `CCCNC(=O)CCC(=O)Nc1ccc(-n2cncn2)c(F)c1`, with 36%.
In the case of `Cc1cc(=O)n2ncnc2n1CC(O)c1ccc(F)cc1F` (stereo not drawn), the cytotoxicity at 70.5 h is -16.6%.
With `COCC(c1ccccn1)N(C)C(=O)c1cc(-c2cccn2C)n[nH]1` (stereo not drawn), the cytotoxicity at 70.5 h was -10.6%.
For `CCN(CC)C(CNC(=O)c1cccnc1-n1cncn1)c1ccsc1` (stereo not drawn), the cytotoxicity at 70.5 h was -7.63%.
With `O=C1CC2(CCN(Cc3ccco3)C2)CN1c1ccc2c(c1)OCO2` (stereo not drawn), the cytotoxicity at 70.5 h came to 11.6%.
For `CN1CCN(C(=O)Cc2csc(-c3ccsc3)n2)C(c2ccccc2)C1` (stereo not drawn) the value was -3.75%; for `CC(C)c1nc(CN(C)C(=O)C(O)c2ccc(Cl)cc2)cs1` (stereo not drawn), -0.849%.
Then `COCc1cc(O)nc(C2CCCN(Cc3cccc(OC)c3)C2)n1` (stereo not drawn), with -1.68%; and `COc1cc(C(C)NCc2c[nH]nc2C)ccc1OCCO` (stereo not drawn), with 7.95%.
Turning to `CN(CCNC(=O)N1CCN(Cc2ccon2)CC1)C1CCCC1`, the cytotoxicity at 70.5 h was -1.48%.
Then `O=C(Nc1cnn(-c2ccccc2Cl)c1)N[C@@H]1C=C[C@H](CO)C1`, with -5.42%; and `Cc1ccc(CN2Cc3nnn(C)c3C(COCC(=O)N(C)C)C2)s1` (stereo not drawn), with -8.72%; and `O=C(Cc1ccc(F)c(Br)c1)NC1CCN(CC(F)F)CC1`, with 3.07%.
For `c1ccc(COC[C@H]2CC[C@H]3[C@H](CCN3Cc3ccco3)O2)nc1` the value was -6.26%; for `N[C@@H]1CC[C@@H](NC(=O)c2ccccc2OC(F)(F)C(F)F)C1`, 16%; for `Cn1ccc(C(=O)N2CCN(CCc3ccccc3)CC2)cc1=O`, -1.11%.
For `CCc1noc(CN2CCCC(Cn3nc(C)nc3C)C2)n1` (stereo not drawn) the value was -12.1%; for `CN(C)CCN(C)c1ccc(-c2nc(COc3ccccc3)no2)cn1`, 6.86%.
As to `CC(=O)N1N=C(Cc2ccccc2)OC1C(=O)NCC(C)C` (stereo not drawn), the cytotoxicity at 70.5 h is -1.89%.
Then `Cc1cccc(CN2C[C@@H]3COC[C@]3(CNC(=O)c3cccn3C)C2)n1`, with 19.6%; and `O=C(Cc1ccco1)N1C[C@H]2CCC[C@@]2(COCC2CC2)C1`, with -11.1%; and `Cc1nn(C)c2nc(N3CCC(C(O)c4ccccn4)CC3)sc12` (stereo not drawn), with -0.933%.
Then `COCCn1cc2c(n1)C(CNC(=O)c1cc(C)[nH]c1C)OCC2` (stereo not drawn), with -2.66%.
Then `Cc1ccc(OCCC(=O)N2CCC(c3nncn3C)CC2)c(C)c1`, with 1.76%; and `COc1ccc(-c2csc3c2c(N)nc(=O)n3CCCN(C)C)cc1`, with -8.54%; and `CCn1ccnc1CN1CCN(C(C)C(=O)NCc2ccco2)CC1` (stereo not drawn), with 16.6%.
Turning to `O=S(=O)(c1cccc(F)c1)N1CC[C@H]2[C@H]1CCN2c1ncccn1`, the cytotoxicity at 70.5 h was found to be 1.7%.
Regarding `COc1cc(C)cc(C(C(=O)O)N2CCN(C3CCCC3)CC2)c1OC` (stereo not drawn), the cytotoxicity at 70.5 h is -2.66%.
Consider `CN(C)C(=O)CCC[S+]([O-])Cc1cc(Cl)ccc1Cl` (stereo not drawn), for which the cytotoxicity at 70.5 h was -3.61%.
`CCOc1ncccc1C(=O)N1CCCC1c1c(C)nn(C)c1OC` (stereo not drawn): the cytotoxicity at 70.5 h was 1.14%.
Then `CN1CCCC1CCNC(=O)c1ccccc1-n1cc(CN)cn1` (stereo not drawn), with 1.23%; and `Cc1cccc(N2CCOCC3(C2)CN(c2cncnc2)C(=O)CO3)n1` (stereo not drawn), with -6.08%.
`CN1CCOC(CN(C(=O)CC2CCCC2)c2nccs2)C1` (stereo not drawn): the cytotoxicity at 70.5 h is 4.76%.
In the case of `CCOc1cccc(CN(Cc2cnn(C)c2)CC(C)C)c1O`, the cytotoxicity at 70.5 h worked out at 7.39%.
For `Cc1ncsc1C(=O)N1CCCC1c1c(C)nn(C)c1C` (stereo not drawn), the cytotoxicity at 70.5 h was -1.63%.
